Test results: patent publication US20260028332A1, “POLYMORPHIC FORM OF GLP-1R AGONIST, PREPARATION METHOD THEREFOR AND USE THEREOF” (MINDRANK THERAPEUTICS (SUZHOU) NEW DRUG RESEARCH AND …, priority 2022, published 2026)
In brackets after ≈: the same amount, converted by molar mass.

Tests used:
Type in all cases: physicochemical
[1] = Solid state stability study of polymorph (purity by HPLC and crystal form change after 7 days storage); conditions: for purity change, long-term storage condition: 25° C./60% RH; for purity change, long-term storage condition / purity change, accelerated condition / purity change, high-temperature condition: 7 days; for purity change, high-temperature condition: 60° C., RH<30%; for crystal form change after storage: 7 days in long-term storage, accelerated and high-temperature conditions; for overall solid state stability: 7 days storage study, conclusion
Description: Crystal form 2A of compound II was preserved in long-term storage (25° C./60% RH), accelerated (40° C./75% RH), and high-temperature (60° C., RH<30%) conditions for 7 days, and tested for purity and crystal form change by HPLC, so as to examine the stability of the solids.

[2] = Hygroscopic behavior test by dynamic vapor sorption (DVS); conditions: for solid form change after DVS / hygroscopicity / Sample weight change at 80% RH (%): 25° C.; for solid form change after DVS: 0-90% RH; for hygroscopicity: 0-90% RH adsorption curve, at 80% RH; for Whether the crystal form is changed: after DVS test at 25° C.
Description: The experimental method for characterizing an acid salt or a base salt of compound III by dynamic vapor sorption (DVS) was as follows: A small amount of a powder of a polymorph of compound III was taken and placed into a precise sample tray that matches the instrument. After the sample was loaded, the sample tray was sent into the instrument for analysis. In the present disclosure, the instrument model used in the dynamic vapor sorption analysis was Intrinsic PLUS; the experimental parameter was set as follows: a constant temperature of 25° C. was set; the mass percent change rate per unit time (dm/dt)=0.02%/min was used as a criterion for determining that a balance is achieved; the program humidity change cycle was set as follows: the initial relative humidity was 0%, and the endpoint relative humidity was 90%.
The DVS plot of the amorphous solid of the compound is shown in FIG. 67, and the DVS plot of crystal form D of the compound is shown in FIG. 68 The results are shown in the table below
The inventors assessed the stability risk of samples under varying humidity at 25° C. using the dynamic vapor sorption method and conducted the DVS test on the representative crystal form 2A of compound II to evaluate the hygroscopicity of the crystal form of the compound.

[3] = Equilibrium solubility study of polymorph in biological media (supernatant concentration; residual solid by XRPD); conditions: for Whether the crystal form is changed: residual solid by XRPD after 24 h at 37±2° C.; for solubility thermodynamic at 24 h: 37 °C, thermodynamic from solid, suspension ~10 mg/mL, 37±2° C.
[4] = Solid state stability study of polymorph (purity by HPLC and crystal form change after 7 days storage); conditions: for Purity (%) / Initial purity (%): HPLC; for Initial purity (%): before storage
[5] = Equilibrium solubility study of polymorph in biological media (supernatant concentration; residual solid by XRPD); conditions: for crystal form change of the solid in FaSSGF: ~10 mg/mL suspension; for crystal form change of the solid in FaSSGF / crystal form change of the solid in other media: solid tested by XRPD; for stability in biological media compared with the amorphous solid: H2O; for crystal form change of the solid in other media: media other than FaSSGF (H2O, FaSSIF, FeSSIF); for Whether the crystal form is changed: residual solid by XRPD after 24 h at 37±2° C.
Description: (§1) In the tests, the solids were suspended in corresponding buffers to formulate suspensions (˜10 mg/mL), and the suspensions were mixed at 37±2° C. After 24 h, samples of the suspensions were taken. The supernatant was filtered, and the concentration was determined. The solid was tested by XRPD.
as §1, with “Crystal form 2A of compound II was tested for its equilibrium solubility in water (H2O), fasted state simulated gastric fluid (FaSSGF), fasted state simulated intestinal fluid (FaSSIF), and fed state simulated intestinal fluid (FeSSIF). In” for “In”

[6] = 25° C./60% RH, 7 days (long-term storage), compound I
[7] = 40° C./75% RH, 7 days (accelerated), compound I
[8] = 60° C., 7 days (high-temperature, RH<30%), compound I
[9] = FaSSGF, FaSSIF, FeSSIF, 37±2° C., 24 h
[10] = 25° C./60% RH, 7 days (long-term storage), compound II
[11] = 60° C., 7 days (high-temperature, RH<30%), compound II

Row | purity change, long-term storage condition ([1]; HPLC) | purity change, accelerated condition ([1]; 40° C./75% RH, HPLC) | purity change, high-temperature condition ([1]; HPLC) | solid form change after DVS [2] | hygroscopicity [2] | hygroscopicity ([2]; DVS, compound I) | Sample weight change at 80% RH (%) ([2]; DVS, compound I) | Whether the crystal form is changed ([2]; compound I) | Whether the crystal form is changed ([3]; H2O, polymorph of compound I) | Purity (%) [4, 6] | Crystal form change [4, 6] | Purity (%) [4, 7] | Crystal form change [4, 7] | Purity (%) [4, 8] | Crystal form change [4, 8] | Initial purity (%) ([4]; compound I) | crystal form change of the solid in FaSSGF ([5]; FaSSGF, 37±2° C., 24 h) | stability in biological media compared with the amorphous solid [5, 9] | crystal form change of the solid in other media ([5]; 37±2° C., 24 h) | SMILES | crystal form change after storage [1] | further results
1 | no significant purity changes | significant degradation | significant degradation | no solid form changes were observed | slightly hygroscopic | Slightly hygroscopic | 0.90% | No | No | 98.94% | No | 95.86% | No | 89.15% | No | 98.98% |  |  |  | O=C(O)c1ccc2nc(CN3CCC(Oc4cccc(COc5ccc(Cl)cc5F)n4)CC3)n(C[C@@H]3CCO3)c2c1 [amorphous solid of compound I, (S)-2-((4-((6-((4-chloro-2-fluorophenoxy)methyl)pyridin-2-yl)oxy)piperidin-1-yl)methyl)-1-(oxetan-2-ylmethyl)-1/-benzo[d]imidazole-6-carboxylic acid] |  | 
2 | no significant purity changes | slightly reduced purities | slightly reduced purities | no solid form changes were observed | slightly hygroscopic | Slightly hygroscopic | 1.08% | No | No | 99.10% | No | 98.98% | No | 98.61% | No | 99.15% | converted into a hydrochloride salt | significantly superior | no crystal form change was observed | O=C(O)c1ccc2nc(CN3CCC(Oc4cccc(COc5ccc(Cl)cc5F)n4)CC3)n(C[C@@H]3CCO3)c2c1 [crystal form D of compound I, (S)-2-((4-((6-((4-chloro-2-fluorophenoxy)methyl)pyridin-2-yl)oxy)piperidin-I-yl)methyl)-1-(oxetan-2-ylmethyl)-1H-benzo[d]imidazole-6-carboxylic acid] | no significant crystal form changes | solubility in the FaSSIF system ([5]; FaSSIF, 37±2° C., 24 h, compared with amorphous solid): significantly improved solubility; overall solid state stability [1]: significantly superior; Whether the crystal form is changed ([3]; FaSSIF, polymorph of compound I): No; Whether the crystal form is changed ([3]; FeSSIF, polymorph of compound I): No
3 | no significant purity changes | no significant purity changes | no significant purity changes | no solid form changes were observed | slightly hygroscopic |  |  |  |  |  |  |  |  |  |  |  | converted into a hydrochloride salt | significantly superior | no crystal form changes | N#Cc1ccc(OCc2cccc(OC3CCN(Cc4nc5ccc(C(=O)O)cc5n4C[C@@H]4CCO4)CC3)n2)c(F)c1 [crystal form 2A of compound II, (S)-2-((4-((6-((4-cyano-2-fluorophenoxy)methyl)pyridin-2-yl)oxy)piperidin-1-yl)methyl)-1-(oxetan-2-ylmethyl)-1H-benzo[d]imidazole-6-carboxylic acid] | no significant purity changes or significant crystal form changes | Whether the crystal form is changed ([5]; FaSSIF, polymorph of compound II): No; Whether the crystal form is changed ([5]; FeSSIF, polymorph of compound II): No; solubility thermodynamic at 24 h ([5]; fasted state simulated gastric fluid (FaSSGF), 37 °C, fassgf or other biorelevant, thermodynamic from solid, FaSSGF, suspension ~10 mg/mL, 37±2° C., 24 h, polymorph of compound II): 180 µg/mL (≈ 315 µM); Purity (%) ([1]; 40° C./75% RH, 7 days (accelerated), HPLC, compound II): 97.38%; Crystal form change ([1]; 40° C./75% RH, 7 days (accelerated), compound II): No; overall solid state stability [1]: good stability; hygroscopicity ([2]; DVS, compound II): Slightly hygroscopic; Sample weight change at 80% RH (%) ([2]; DVS, compound II): 0.71%; Whether the crystal form is changed ([2]; compound II): No; Whether the crystal form is changed ([3]; H2O, polymorph of compound II): No; solubility thermodynamic at 24 h ([3]; fasted state simulated intestinal fluid (FaSSIF), FaSSIF, polymorph of compound II): 40 µg/mL (≈ 70 µM); solubility thermodynamic at 24 h ([3]; fed state simulated intestinal fluid (FeSSIF), FeSSIF, polymorph of compound II): 190 µg/mL (≈ 332 µM); solubility thermodynamic at 24 h ([3]; water, H2O, polymorph of compound II): 90 µg/mL (≈ 157 µM); Purity (%) [4, 10]: 97.65%; Crystal form change [4, 10]: No; Purity (%) [4, 11]: 97.63%; Crystal form change [4, 11]: No; Initial purity (%) ([4]; compound II): 97.71%
